According to US20220389007A1, “INHIBITORS OF HUMAN IMMUNODEFICIENCY VIRUS REPLICATION” (VIIV HEALTHCARE UK (No. 5) LIMITED, priority 2019, published 2022):

What was measured:
[1] = Compound cytotoxicity, XTT-based colorimetric assay; assay type: cell-based; settings: human; uninfected MT2 cells, day 4, XTT assay
Outline: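 Run under the antiviral-assay protocol but without virus. Viability was read on day 4 and CC50 values were derived from the readout.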

recombinant NL4-3 virus = assay: HIV cell culture assay (antiviral activity, luciferase readout); assay type: cell-based; settings: Human immunodeficiency virus 1, NL43, MT2, MT-2 cells infected for 4-5 days with recombinant NL4-3 virus carrying Renilla luciferase
Outline: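 MT-2 cells infected for 4-5 days with NL4-3 reference virus carrying Renilla luciferase in place of part of nef, in presence of serial compound dilutions. Luciferase read with live-cell substrate; EC50 from median effect equation fit.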

Cn1nc(NS(C)(=O)=O)c2c(Cl)ccc(-n3c([C@H](Cc4cc(F)cc(F)c4)NC(=O)Cn4nc(C(F)F)c5c4C(F)(F)[C@@H]4C[C@H]54)nc4nc(-c5ccn(CCCC(F)(F)F)n5)ccc4c3=O)c21 (atropisomer, axis not shown; (P)) [Example 85, N-((S)-1-((3P)-3-(4-chloro-1-methyl-3-(methylsulfonamido)-1H-indazol-7-yl)-4-oxo-7-(1-(4,4,4-trifluorobutyl)-1H-pyrazol-3-yl)-3,4-dihydropyrido[2,3-d]pyrimidin-2-yl)-2-(3,5-difluorophenyl)ethyl)-2-((3bS,4aR)-3-(difluoromethyl)-5,5-difluoro-3b,4,4a,5-tetrahydro-1H-cyclopropa[3,4]cyclopenta[1,2-c]pyrazol-1-yl)acetamide]
CC50 at 4 day [1]: > 100 nM | EC50 (recombinant NL4-3 virus): 0.096 nM

Cc1cc(-c2ccc3c(=O)n(-c4ccc(Cl)c5c(NS(C)(=O)=O)nn(C)c45)c([C@H](Cc4cc(F)cc(F)c4)NC(=O)Cn4nc(C(F)F)c5c4C(F)(F)[C@@H]4C[C@H]54)nc3n2)n(C)n1 (atropisomer, axis not shown; (P)) [Example 70, N-((S)-1-((3P)-3-(4-chloro-1-methyl-3-(methylsulfonamido)-1H-indazol-7-yl)-7-(1,3-dimethyl-1H-pyrazol-5-yl)-4-oxo-3,4-dihydropyrido[2,3-d]pyrimidin-2-yl)-2-(3,5-difluorophenyl)ethyl)-2-((3bS,4aR)-3-(difluoromethyl)-5,5-difluoro-3b,4,4a,5-tetrahydro-1H-cyclopropa[3,4]cyclopenta[1,2-c]pyrazol-1-yl)acetamide]
CC50 at 4 day [1]: > 100 nM | EC50 (recombinant NL4-3 virus): 0.041 nM

Cc1nc2ccc(-c3ccc4c(=O)n(-c5ccc(Cl)c6c(NS(C)(=O)=O)nn(C)c56)c([C@H](Cc5cc(F)cc(F)c5)NC(=O)Cn5nc(C(F)F)c6c5C(F)(F)[C@@H]5C[C@H]65)nc4n3)cc2s1 (atropisomer, axis not shown; (P)) [Example 67, N-((S)-1-((3P)-3-(4-chloro-1-methyl-3-(methylsulfonamido)-1H-indazol-7-yl)-7-(2-methylbenzo[d]thiazol-6-yl)-4-oxo-3,4-dihydropyrido[2,3-d]pyrimidin-2-yl)-2-(3,5-difluorophenyl)ethyl)-2-((3bS,4aR)-3-(difluoromethyl)-5,5-difluoro-3b,4,4a,5-tetrahydro-1H-cyclopropa[3,4]cyclopenta[1,2-c]pyrazol-1-yl)acetamide]
CC50 at 4 day [1]: > 100 nM | EC50 (recombinant NL4-3 virus): 0.55 nM

Cn1nccc1-c1ccc2c(=O)n(-c3ccc(Cl)c4c(NS(C)(=O)=O)nn(C)c34)c([C@H](Cc3cc(F)cc(F)c3)NC(=O)Cn3nc(C(F)F)c4c3C(F)(F)[C@@H]3C[C@H]43)nc2n1 (atropisomer, axis not shown; (P)) [Example 68, N-((S)-1-((3P)-3-(4-chloro-1-methyl-3-(methylsulfonamido)-1H-indazol-7-yl)-7-(1-methyl-1H-pyrazol-5-yl)-4-oxo-3,4-dihydropyrido[2,3-d]pyrimidin-2-yl)-2-(3,5-difluorophenyl)ethyl)-2-((3bS,4aR)-3-(difluoromethyl)-5,5-difluoro-3b,4,4a,5-tetrahydro-1H-cyclopropa[3,4]cyclopenta[1,2-c]pyrazol-1-yl)acetamide]
CC50 at 4 day [1]: > 100 nM | EC50 (recombinant NL4-3 virus): 0.049 nM

Cn1nc(NS(C)(=O)=O)c2c(Cl)ccc(-n3c([C@H](Cc4cc(F)cc(F)c4)NC(=O)Cn4nc(C(F)F)c5c4C(F)(F)[C@@H]4C[C@H]54)nc4nc(-c5cccc(F)n5)ccc4c3=O)c21 (atropisomer, axis not shown; (P)) [Example 30, N-((S)-1-((3P)-3-(4-chloro-1-methyl-3-(methylsulfonamido)-1H-indazol-7-yl)-7-(6-fluoropyridin-2-yl)-4-oxo-3,4-dihydropyrido[2,3-d]pyrimidin-2-yl)-2-(3,5-difluorophenyl)ethyl)-2-((3bS,4aR)-3-(difluoromethyl)-5,5-difluoro-3b,4,4a,5-tetrahydro-1H-cyclopropa[3,4]cyclopenta[1,2-c]pyrazol-1-yl)acetamide]
CC50 at 4 day [1]: > 100 nM | EC50 (recombinant NL4-3 virus): 0.034 nM

Cn1nc(NS(C)(=O)=O)c2c(Cl)ccc(-n3c([C@H](Cc4cc(F)cc(F)c4)NC(=O)Cn4nc(C(F)F)c5c4C(F)(F)[C@@H]4C[C@H]54)nc4nc(-c5ncncc5C(F)(F)F)ccc4c3=O)c21 (atropisomer, axis not shown; (P)) [Example 17, N-((S)-1-((3P)-3-(4-chloro-1-methyl-3-(methylsulfonamido)-1H-indazol-7-yl)-4-oxo-7-(5-(trifluoromethyl)pyrimidin-4-yl)-3,4-dihydropyrido[2,3-d]pyrimidin-2-yl)-2-(3,5-difluorophenyl)ethyl)-2-((3bS,4aR)-3-(difluoromethyl)-5,5-difluoro-3b,4,4a,5-tetrahydro-1H-cyclopropa[3,4]cyclopenta[1,2-c]pyrazol-1-yl)acetamide]
CC50 at 4 day [1]: > 100 nM | EC50 (recombinant NL4-3 virus): 0.038 nM

Cn1nc(NS(C)(=O)=O)c2c(Cl)ccc(-n3c([C@H](Cc4cc(F)cc(F)c4)NC(=O)Cn4nc(C(F)F)c5c4C(F)(F)[C@@H]4C[C@H]54)nc4nc(-c5ccc6scnc6c5)ccc4c3=O)c21 (atropisomer, axis not shown; (P)) [Example 72, N-((S)-1-(7-(benzo[d]thiazol-5-yl)-(3P)-3-(4-chloro-1-methyl-3-(methylsulfonamido)-1H-indazol-7-yl)-4-oxo-3,4-dihydropyrido[2,3-d]pyrimidin-2-yl)-2-(3,5-difluorophenyl)ethyl)-2-((3bS,4aR)-3-(difluoromethyl)-5,5-difluoro-3b,4,4a,5-tetrahydro-1H-cyclopropa[3,4]cyclopenta[1,2-c]pyrazol-1-yl)acetamide]
CC50 at 4 day [1]: > 100 nM | EC50 (recombinant NL4-3 virus): 0.11 nM

Cn1nc(NS(C)(=O)=O)c2c(Cl)ccc(-n3c([C@H](Cc4cc(F)cc(F)c4)NC(=O)Cn4nc(C(F)F)c5c4C(F)(F)[C@@H]4C[C@H]54)nc4nc(-c5ccn(CC(F)(F)C(F)(F)F)n5)ccc4c3=O)c21 (atropisomer, axis not shown; (P)) [Example 88, N-((S)-1-((3P)-3-(4-chloro-1-methyl-3-(methylsulfonamido)-1H-indazol-7-yl)-4-oxo-7-(1-(2,2,3,3,3-pentafluoropropyl)-1H-pyrazol-3-yl)-3,4-dihydropyrido[2,3-d]pyrimidin-2-yl)-2-(3,5-difluorophenyl)ethyl)-2-((3bS,4aR)-3-(difluoromethyl)-5,5-difluoro-3b,4,4a,5-tetrahydro-1H-cyclopropa[3,4]cyclopenta[1,2-c]pyrazol-1-yl)acetamide]
CC50 at 4 day [1]: > 100 nM | EC50 (recombinant NL4-3 virus): 0.079 nM

Cn1nc(NS(C)(=O)=O)c2c(Cl)ccc(-n3c([C@H](Cc4cc(F)cc(F)c4)NC(=O)Cn4nc(C(F)F)c5c4C(F)(F)[C@@H]4C[C@H]54)nc4nc(-c5nc(C(F)(F)F)ccc5F)ccc4c3=O)c21 (atropisomer, axis not shown; (P)) [Example 36, N-((S)-1-((3P)-3-(4-chloro-1-methyl-3-(methylsulfonamido)-1H-indazol-7-yl)-7-(3-fluoro-6-(trifluoromethyl)pyridin-2-yl)-4-oxo-3,4-dihydropyrido[2,3-d]pyrimidin-2-yl)-2-(3,5-difluorophenyl)ethyl)-2-((3bS,4aR)-3-(difluoromethyl)-5,5-difluoro-3b,4,4a,5-tetrahydro-1H-cyclopropa[3,4]cyclopenta[1,2-c]pyrazol-1-yl)acetamide]
CC50 at 4 day [1]: > 100 nM | EC50 (recombinant NL4-3 virus): 0.045 nM

Cn1nc(NS(C)(=O)=O)c2c(Cl)ccc(-n3c([C@H](Cc4cc(F)cc(F)c4)NC(=O)Cn4nc(C(F)F)c5c4C(F)(F)[C@@H]4C[C@H]54)nc4nc(-c5ccc(OC(F)(F)F)cc5)ccc4c3=O)c21 (atropisomer, axis not shown; (P)) [Example 26, N-((S)-1-((3P)-3-(4-chloro-1-methyl-3-(methylsulfonamido)-1H-indazol-7-yl)-4-oxo-7-(4-(trifluoromethoxy)phenyl)-3,4-dihydropyrido[2,3-d]pyrimidin-2-yl)-2-(3,5-difluorophenyl)ethyl)-2-((3bS,4aR)-3-(difluoromethyl)-5,5-difluoro-3b,4,4a,5-tetrahydro-1H-cyclopropa[3,4]cyclopenta[1,2-c]pyrazol-1-yl)acetamide]
CC50 at 4 day [1]: > 100 nM | EC50 (recombinant NL4-3 virus): 0.51 nM

Cn1nc(NS(C)(=O)=O)c2c(Cl)ccc(-n3c([C@H](Cc4cc(F)cc(F)c4)NC(=O)Cn4nc(C(F)F)c5c4C(F)(F)[C@@H]4C[C@H]54)nc4nc(-c5ccncc5)ccc4c3=O)c21 (atropisomer, axis not shown; (P)) [Example 34, N-((S)-1-((3P)-3-(4-chloro-1-methyl-3-(methylsulfonamido)-1H-indazol-7-yl)-4-oxo-7-(pyridin-4-yl)-3,4-dihydropyrido[2,3-d]pyrimidin-2-yl)-2-(3,5-difluorophenyl)ethyl)-2-((3bS,4aR)-3-(difluoromethyl)-5,5-difluoro-3b,4,4a,5-tetrahydro-1H-cyclopropa[3,4]cyclopenta[1,2-c]pyrazol-1-yl)acetamide]
CC50 at 4 day [1]: > 100 nM | EC50 (recombinant NL4-3 virus): 0.07 nM

Cn1nc(NS(C)(=O)=O)c2c(Cl)ccc(-n3c([C@H](Cc4cc(F)cc(F)c4)NC(=O)Cn4nc(C(F)F)c5c4C(F)(F)[C@@H]4C[C@H]54)nc4nc(-c5ccccc5C(F)(F)F)ccc4c3=O)c21 (atropisomer, axis not shown; (P)) [Example 25, N-((S)-1-((3P)-3-(4-chloro-1-methyl-3-(methylsulfonamido)-1H-indazol-7-yl)-4-oxo-7-(2-(trifluoromethyl)phenyl)-3,4-dihydropyrido[2,3-d]pyrimidin-2-yl)-2-(3,5-difluorophenyl)ethyl)-2-((3bS,4aR)-3-(difluoromethyl)-5,5-difluoro-3b,4,4a,5-tetrahydro-1H-cyclopropa[3,4]cyclopenta[1,2-c]pyrazol-1-yl)acetamide]
CC50 at 4 day [1]: > 100 nM | EC50 (recombinant NL4-3 virus): 0.06 nM
